This passage reports ΔTm and Ka results from publication PMC9812923 (2022).

The subject of experiment [1] is GA1 (DNA, G4) GAGGGAGGGAGGGAAAAGGGGA
The experiment can be described thus: UV-Vis melting, 295 nm. The note with it: 100 mM K+; 10 mM lithium cacodylate pH 7.2; 2 equivalents NMM, ~4 μM DNA.

Experiment [2] relates to GA2 (DNA, G4) GAGGGAGGGAAAAGGGGAGGGA
The experiment can be described thus: UV-Vis melting, 295 nm. The note with it: 100 mM K+; 10 mM lithium cacodylate pH 7.2; 2 equivalents NMM, ~4 μM DNA.

For experiment [3], the system named is GA3 (DNA, G4) AGGGAAAAGGGGAGGGAAAAGGGGA
The experiment can be described thus: UV-Vis melting, 295 nm. The note with it: 100 mM K+; 10 mM lithium cacodylate pH 7.2; 2 equivalents NMM, ~4 μM DNA.

Experiment [4] has as its system GA2 (DNA, G4) GAGGGAGGGAAAAGGGGAGGGA
The experiment can be described thus: UV-Vis titration, SVD. The note with it: 5 mM K+, 95 mM Li+; 10 mM lithium cacodylate pH 7.2, 20 °C; 1:1 model.

What is called ΔTm is the change in melting temperature against a reference sample. For `CCc1c(C)c2cc3nc(cc4nc(cc5c(CC)c(C)c(cc1[nH]2)n5C)C(C)=C4CCC(=O)O)C(CCC(=O)O)=C3C`, the ΔTm is 14.6 ± 1.1 °C in experiment [1], 13.1 ± 0.8 °C in experiment [2] and 7.0 ± 1.7 °C in experiment [3]. The compound also gave a Ka in experiment [4] of 1.4 ± 0.1 µM⁻¹.
